Source: patent US4657927A, “Malonato platinum compounds” (Research Corporation, priority 1983, dated 1987)

Columns and labels:
Sarcoma 180 [1] = test: Antitumor activity, solid sarcoma 180 tumor, T/C of tumor weights at day 10 (Table I); type: in vivo, female Swiss white mice
Experimental: The compounds of the invention were tested for antitumor activity, i.e., for sensitivity to a planar dsp^2 platinum(II) coordination compound or an octahedral d^2 sp^3 platinum(IV) coordination compound using our standard screening tumor, solid sarcoma 180 tumor in female Swiss white mice, following standard protocols for this testing as set by the National Cancer Institute. (Cancer Chemotherapy Rep., 25 (1962)).
For these tests an S 180 tumor taken from a sacrificed mouse was disected free of superfluous tissue and cut under sterile conditions into approximately 10 milligram size pieces. These tissue pieces were then implanted by trocar in the left axillary region, subcutaneously, in new mice. The mice were, on the average, approximately four weeks old and weighed 18-20 grams. Taking day 0 as the day of implant, the animals were sacrificed on day 10. The tumors were excised and weighed and the ratio of the weights of the tumors in mice in the treated animals to the control set of animals was obtained. This ratio, multiplied by 100, is given as the T/C ratio in Table I.
For the first set of tests the coordination compound was freshly dissolved in sterile distilled water and injected intraperitoneally on day 1 into each of the test mice. The volume of the injection was usually 1/2 ml. In some cases, in order to get an active dose into the animal where the chemical was not soluble in this amount of solvent, a fine dispersion was prepared of the dose needed for the test. Thus, some of our test results were obtained on animals where a slurry of the compound was injected. These are so noted in Table I below. In addition, for some of the compounds, there was injected about 1 ml of solution, either in one single injection, or in 2 injections given a few hours apart of 1/2 ml each. These injections were initially given in 4 different dose levels for each new compound with 6 mice in each dose level. The tests covered a dose range from a low ineffective dose, to an upper dose level which produced some deaths within the time period of the experiment.

Sarcoma 180 [2] = test: Large Sarcoma 180 regressions, injection on day 8 (Table II); type: in vivo, female Swiss white mice; settings: single i.p. injection on day 8, H2O solution
Experimental: In addition to the day 1 injections described above, in a number of case injections were delayed until day 8 of tumor growth. In these cases the tumor was usually at least larger than 1/2 gm, as estimated by palpation. The animals were then injected and observed for a period of approximately 60 days. Activity was measured by the number of animals whose tumors had regressed to the vanishing point, while still allowing the animal to survive for this time period. Such test results are described in TABLE II below.

[3] = test system: Walker 256 Carcinosarcoma; test: Confirmatory antitumor test, Walker 256 Carcinosarcoma (Table III); type: in vivo, Rat; settings: single injection day 1 in oil, i.p.
Experimental: (§1) Confirmatory tests of antitumor activity against the Walker 256 Carcinosarcoma in rats, and the ADJ/PC6A tumor in mice were conducted. The initial test results are shown in Table III and confirm the potent action of the compounds of the invention against these other tumor systems.

ADJ/PC6A = test: Confirmatory antitumor test, ADJ/PC6A tumor (Table III); type: in vivo, Mouse; settings: single injection day 25 in oil, i.p.
Experimental: as §1

L1210 = test: Confirmatory antitumor test at the National Cancer Institute, L1210 (Table IV); type: in vivo, Mice
Text: Samples of the malonato diammine and malonato ethylene diamine complexes of platinum(II) were submitted to the Drug Research and Development Branch of the National Cancer Institute for screening for antitumor activity against the L1210 tumor in mice. They confirm the activity of the compounds of the invention.

[4] = dose level 40 (unit not given), single i.p. injection day 1
[5] = dose level 60 (unit not given), single i.p. injection day 1
[6] = dose level 80 (unit not given), single i.p. injection day 1
[7] = dose level 90 (unit not given), single i.p. injection day 1
[8] = dose level 100 (unit not given), single i.p. injection day 1
[9] = dose level 110 (unit not given), single i.p. injection day 1
[10] = dose level 120 (unit not given), single i.p. injection day 1
[11] = 30 mg/kg, single i.p. injection day 1, solution in H2O
[12] = 40 mg/kg, single i.p. injection day 1, solution in H2O
[13] = 50 mg/kg, single i.p. injection day 1, solution in H2O
[14] = 60 mg/kg, single i.p. injection day 1, solution in H2O
[15] = 70 mg/kg, single i.p. injection day 1, solution in H2O
[16] = 80 mg/kg, single i.p. injection day 1, solution in H2O
[17] = 10 mg/kg, single i.p. injection day 1, solution in H2O
[18] = 20 mg/kg, single i.p. injection day 1, solution in H2O
[19] = 45 mg/kg, single i.p. injection day 1, solution in H2O
[20] = 55 mg/kg, single i.p. injection day 1, solution in H2O
[21] = 20 mg/kg, single i.p. injection day 1
[22] = 40 mg/kg, single i.p. injection day 1
[23] = 60 mg/kg, single i.p. injection day 1
[24] = 80 mg/kg, single i.p. injection day 1
[25] = 100 mg/kg, single i.p. injection day 1
[26] = 120 mg/kg, single i.p. injection day 1
[27] = 160 mg/kg, single i.p. injection day 1

CCC1C(=O)[O][Pt]2([NH]CC[NH]2)[O]C1=O [ethylmalonatoethylenediamineplatinum (II)]
No. of Deaths (Sarcoma 180 [1]; [4]): 0
T/C (Sarcoma 180 [1]; [4]): 72
No. of Deaths (Sarcoma 180 [1]; [5]): 0
T/C (Sarcoma 180 [1]; [5]): 81
No. of Deaths (Sarcoma 180 [1]; [6]): 0
T/C (Sarcoma 180 [1]; [6]): 79
No. of Deaths (Sarcoma 180 [1]; [7]): 0
T/C (Sarcoma 180 [1]; [7]): 47
No. of Deaths (Sarcoma 180 [1]; [8]): 1
T/C (Sarcoma 180 [1]; [8]): 55
No. of Deaths (Sarcoma 180 [1]; [9]): 0
T/C (Sarcoma 180 [1]; [9]): 41
No. of Deaths (Sarcoma 180 [1]; [10]): 0
T/C (Sarcoma 180 [1]; [10]): 58

CCC(C(=O)[O-])C(=O)[O-].N.N.[Pt+2] [ethylmalonatodiammineplatinum (II)]
No. of Deaths (Sarcoma 180 [1]; [11]): 0
T/C (Sarcoma 180 [1]; [11]): 57
No. of Deaths (Sarcoma 180 [1]; [12]): 0
T/C (Sarcoma 180 [1]; [12]): 43
No. of Deaths (Sarcoma 180 [1]; [13]): 0
T/C (Sarcoma 180 [1]; [13]): 47
No. of Deaths (Sarcoma 180 [1]; [14]): 0
T/C (Sarcoma 180 [1]; [14]): 39
No. of Deaths (Sarcoma 180 [1]; [15]): 0
T/C (Sarcoma 180 [1]; [15]): 17
No. of Deaths (Sarcoma 180 [1]; [16]): 0
T/C (Sarcoma 180 [1]; [16]): 16

NCCN.O=C([O-])CC(=O)[O-].[Pt+2] [malonatoethylenediamineplatinum (II)]
No. of Deaths (Sarcoma 180 [1]; [17]): 0
T/C (Sarcoma 180 [1]; [17]): 88
No. of Deaths (Sarcoma 180 [1]; [18]): 0
T/C (Sarcoma 180 [1]; [18]): 58
No. of Deaths (Sarcoma 180 [1]; [12]): 0
T/C (Sarcoma 180 [1]; [12]): 18
No. of Deaths (Sarcoma 180 [1]; [19]): 0
T/C (Sarcoma 180 [1]; [19]): 49
No. of Deaths (Sarcoma 180 [1]; [13]): 0
T/C (Sarcoma 180 [1]; [13]): 35
No. of Deaths (Sarcoma 180 [1]; [20]): 0
T/C (Sarcoma 180 [1]; [20]): 38
No. of Deaths (Sarcoma 180 [1]; [14]): 3/6
T/C (Sarcoma 180 [1]; [14]): 15
No. of Deaths (Sarcoma 180 [1]; [16]): 3/6
T/C (Sarcoma 180 [1]; [16]): 24
No. of Deaths (Sarcoma 180 [1]; [5]): 0
T/C (Sarcoma 180 [1]; [5]): 80
No. of Deaths (Sarcoma 180 [1]; [6]): 0
No. of Deaths (Sarcoma 180 [1]; [8]): 0
T/C (Sarcoma 180 [1]; [8]): 85
No. of Deaths (Sarcoma 180 [1]; [10]): 0
T/C (Sarcoma 180 [1]; [10]): 50
Deaths (Sarcoma 180 [2]; 40 mg/kg): 3
Total Number of Regressions (Sarcoma 180 [2]; 40 mg/kg): 3
Deaths (Sarcoma 180 [2]; 45 mg/kg): 5
Total Number of Regressions (Sarcoma 180 [2]; 45 mg/kg): 1
Deaths (Sarcoma 180 [2]; 50 mg/kg): 4
Total Number of Regressions (Sarcoma 180 [2]; 50 mg/kg): 2
Deaths (Sarcoma 180 [2]; 60 mg/kg): 3
Total Number of Regressions (Sarcoma 180 [2]; 60 mg/kg): 3
% Inhibition ([3]; dose 10 (unit not given)): 1%
Deaths ([3]; dose 10 (unit not given)): 0
% Inhibition ([3]; dose 20 (unit not given)): 25%
Deaths ([3]; dose 20 (unit not given)): 0
% Inhibition ([3]; dose 40 (unit not given)): 100%
Deaths ([3]; dose 40 (unit not given)): 0
% Inhibition ([3]; dose 80 (unit not given)): 100%
Deaths ([3]; dose 80 (unit not given)): 0
Deaths ([3]; dose 160 (unit not given)): all
% Inhibition (ADJ/PC6A; dose 4 (unit not given)): 1.3%
Deaths (ADJ/PC6A; dose 4 (unit not given)): 0
% Inhibition (ADJ/PC6A; dose 20 (unit not given)): 94%
Deaths (ADJ/PC6A; dose 20 (unit not given)): 0
% Inhibition (ADJ/PC6A; dose 100 (unit not given)): 100%
Deaths (ADJ/PC6A; dose 100 (unit not given)): 0
Deaths (ADJ/PC6A; dose 500 (unit not given)): all
% Increase in Lifespan (L1210; 11 mg/kg, daily injections days 1-9, i.p. (repeat test)): 145%
% Increase in Lifespan (L1210; 12.5 mg/kg, daily injections days 1-9, i.p.): 151%
% Increase in Lifespan (L1210; 16.5 mg/kg, daily injections days 1-9, i.p. (repeat test)): 160%
% Increase in Lifespan (L1210; 25 mg/kg, daily injections days 1-9, i.p.): 160%
% Increase in Lifespan (L1210; 25 mg/kg, daily injections days 1-9, i.p. (repeat test)): 196%
% Increase in Lifespan (L1210; 37.5 mg/kg, daily injections days 1-9, i.p. (repeat test)): 121%
% Increase in Lifespan (L1210; 50 mg/kg, daily injections days 1-9, i.p.): 101%

N.N.O=C([O-])C1(C(=O)[O-])CCC1.[Pt+4] [1,1-cyclobutanedicarboxylate diammineplatinum (II)]
No. of Deaths (Sarcoma 180 [1]; [21]): 0
T/C (Sarcoma 180 [1]; [21]): 71
No. of Deaths (Sarcoma 180 [1]; [22]): 0
T/C (Sarcoma 180 [1]; [22]): 60
No. of Deaths (Sarcoma 180 [1]; [23]): 0
T/C (Sarcoma 180 [1]; [23]): 38
No. of Deaths (Sarcoma 180 [1]; [24]): 0
T/C (Sarcoma 180 [1]; [24]): 42
No. of Deaths (Sarcoma 180 [1]; [25]): 0
T/C (Sarcoma 180 [1]; [25]): 69
No. of Deaths (Sarcoma 180 [1]; [26]): 0
T/C (Sarcoma 180 [1]; [26]): 18
No. of Deaths (Sarcoma 180 [1]; [27]): 4
T/C (Sarcoma 180 [1]; [27]): 62
